IC50 data for three compounds are collected here from paper PMC6563716 (Helvetica Chimica Acta, 2019).

As usually defined, the IC50 is the concentration needed to halve the response being measured. Lower therefore signals inhibition by little substance.

The target of this experiment is T1, human 15-lipoxygenase-1 (15-LOX-1) (Homo sapiens, UniProt P16050).
T1 sequence (P16050 2-662): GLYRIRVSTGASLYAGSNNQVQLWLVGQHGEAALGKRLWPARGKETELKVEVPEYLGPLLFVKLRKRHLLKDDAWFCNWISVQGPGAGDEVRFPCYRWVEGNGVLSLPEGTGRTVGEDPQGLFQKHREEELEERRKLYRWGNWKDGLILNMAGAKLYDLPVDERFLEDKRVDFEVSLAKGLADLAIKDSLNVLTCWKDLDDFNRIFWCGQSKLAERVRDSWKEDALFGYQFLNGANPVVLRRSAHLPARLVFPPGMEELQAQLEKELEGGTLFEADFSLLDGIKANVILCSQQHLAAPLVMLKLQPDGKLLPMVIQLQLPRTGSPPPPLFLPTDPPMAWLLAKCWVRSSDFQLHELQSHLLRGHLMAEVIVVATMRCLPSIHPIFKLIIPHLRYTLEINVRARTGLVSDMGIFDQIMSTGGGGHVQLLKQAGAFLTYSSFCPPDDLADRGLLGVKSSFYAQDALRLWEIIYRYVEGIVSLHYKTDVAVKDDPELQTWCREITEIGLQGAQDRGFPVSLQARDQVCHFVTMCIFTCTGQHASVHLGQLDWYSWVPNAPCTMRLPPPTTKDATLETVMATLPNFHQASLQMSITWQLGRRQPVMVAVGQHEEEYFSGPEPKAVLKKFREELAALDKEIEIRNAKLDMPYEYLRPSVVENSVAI
The experiment in a line: UV absorption assay. The class given is biochemical.
For `CC(C)CCCC(C)CC(=O)NN=Cc1cccs1` (racemic) [compound 2, 3,7‐Dimethyl‐N′‐(thiophen‐2‐ylmethylene)octanehydrazide], the IC50 came to 59 ± 7 µM. `COc1cc(C=NNC(=O)CC(C)CCCC(C)C)ccc1O` (racemic) [compound 4, N ′‐[(4‐Hydroxy‐3‐methoxyphenyl)methylidene]‐3,7‐dimethyloctanehydrazide] had an IC50 of 42 ± 4 µM. `CC(C)CCCC(C)CC(=O)NN=Cc1cccnc1` (racemic) [compound 17, 3,7‐Dimethyl‐N′‐[(pyridin‐3‐yl)methylidene]octanehydrazide]: the IC50 worked out at 16 ± 6 µM.
